Reference: the supplement of paper PMC4862054

Experiments:
Test in all cases: normalised response (% of control), CellTiter-Glo; higher = more viable cells (100 = DMSO, 0 = benzethonium chloride kill control)
Conditions in all cases: incubation time: 72 h
[1] = tested on: HCC1143
Summary of the method: (§1)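 Normalised signals at single concentrations make up the values. They come from breast cancer cell lines seeded (20 µl suspension) into 384-well plates with compound at 5 concentrations in 10-fold steps over a compound-specific 10,000-fold range, incubated 72 h, and read for CellTox Green fluorescence then CellTiter-Glo luminescence. Each plate was normalised to 0.1 % DMSO (100) and a positive kill control (0).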

[2] = tested on: MCF-10A
Summary of the method: as §1

[3] = tested on: CAL-148
Summary of the method: as §1

[4] = tested on: MDA-MB-453
Summary of the method: as §1

[5] = tested on: HDQ-P1
Summary of the method: as §1

[6] = tested on: CAL-51
Summary of the method: as §1

[7] = tested on: BT-474
Summary of the method: as §1

[8] = tested on: MDA-MB-231
Summary of the method: as §1

[9] = tested on: MFM-223
Summary of the method: as §1

[10] = tested on: CAL-120
Summary of the method: as §1

[11] = tested on: CAL-85-1
Summary of the method: as §1

[12] = tested on: HCC1937
Summary of the method: as §1

[13] = tested on: BT-549
Summary of the method: as §1

[14] = tested on: DU-4475
Summary of the method: as §1

[15] = tested on: HCC1599
Summary of the method: as §1

[16] = tested on: MDA-MB-468
Summary of the method: as §1

[17] = tested on: SK-BR-3
Summary of the method: as §1

[18] = tested on: Hs578T
Summary of the method: as §1

[19] = tested on: MDA-MB-436
Summary of the method: as §1

SMILES | normalised response [1] [%] | normalised response [2] [%] | normalised response [3] [%] | normalised response [4] [%] | normalised response [5] [%] | normalised response [6] [%] | normalised response [7] [%] | normalised response [8] [%] | normalised response [9] [%] | normalised response [10] [%] | normalised response [11] [%] | normalised response [12] [%] | normalised response [13] [%] | normalised response [14] [%] | normalised response [15] [%] | normalised response [16] [%] | normalised response [17] [%] | normalised response [18] [%] | normalised response [19] [%]
C[C@]12C=CC(=O)C=C1CC[C@@H]1[C@@H]2[C@@H](O)C[C@@]2(C)[C@H]1CC[C@]2(O)C(=O)CO [Prednisolone] (10 nM) | 100 | 112 | 113 | 106 | 100 | 99.4 | 112 | 108 | 104 | 103 | 102 | 100 | 99.8 | 106 | 97.6 | 105 | 112 | 101 | 95.9
Cn1cc(CNCC2CCN(c3ncc(C(=O)NO)cn3)CC2)c2ccccc21 [Quisinostat] (0.1 nM) | 105 | 109 | 109 | 109 | 100 | 84.2 | 104 | 106 | 104 | 103 | 107 | 99.6 | 99.8 | 103 | 92.9 | 109 | 108 | 96.5 | 101
Cn1cc(CNCC2CCN(c3ncc(C(=O)NO)cn3)CC2)c2ccccc21 [Quisinostat] (1 nM) | 103 | 107 | 110 | 105 | 94.3 | 121 | 107 | 101 | 104 | 96.8 | 97.7 | 97.1 | 97.8 | 102 | 110 | 97 | 102 | 96.8 | 104
CC(C)N(CCCNC(=O)Nc1ccc(C(C)(C)C)cc1)C[C@H]1O[C@@H](n2cc(Br)c3c(N)ncnc32)[C@H](O)[C@@H]1O [SGC0946] (1 nM) | 89.9 | 101 | 99.5 | 95.3 | 94.5 | 104 | 93.8 | 93.2 | 91.3 | 94.9 | 98.4 | 92.7 | 99.2 | 98.5 | 93.8 | 97.7 | 97.5 | 96 | 102
CC(C)N(CCCNC(=O)Nc1ccc(C(C)(C)C)cc1)C[C@H]1O[C@@H](n2cc(Br)c3c(N)ncnc32)[C@H](O)[C@@H]1O [SGC0946] (10 nM) | 99.9 | 97.4 | 91.2 | 89.4 | 97.2 | 108 | 98.8 | 97.5 | 96.6 | 92.9 | 94 | 89.6 | 93.1 | 93.6 | 93.8 | 86.9 | 105 | 98.1 | 92.3
CNC(=O)c1cc(Oc2ccc(NC(=O)Nc3ccc(Cl)c(C(F)(F)F)c3)cc2)ccn1 [Sorafenib] (0.1 nM) | 99.7 | 95.7 | 106 | 108 | 99.7 | 118 | 105 | 107 | 98.8 | 100 | 101 | 97.7 | 104 | 101 | 103 | 101 | 102 | 98.3 | 102
CCN(CC)CCNC(=O)c1c(C)[nH]c(/C=C2\C(=O)Nc3ccc(F)cc32)c1C [Sunitinib] (0.1 nM) | 103 | 99.3 | 108 | 106 | 98.5 | 81.7 | 104 | 106 | 103 | 105 | 99.9 | 95.8 | 100 | 96.1 | 94.7 | 103 | 114 | 93.5 | 94.9
CCN(CC)CCNC(=O)c1c(C)[nH]c(/C=C2\C(=O)Nc3ccc(F)cc32)c1C [Sunitinib] (1 nM) | 103 | 107 | 103 | 105 | 97.1 | 141 | 109 | 101 | 105 | 107 | 99.9 | 107 | 95.5 | 99.4 | 119 | 106 | 111 | 97.7 | 104
CC[C@@]1(O)C(=O)OCc2c1cc1n(c2=O)Cc2cc3c(CN(C)C)c(O)ccc3nc2-1 [Topotecan] (1 nM) | 92.8 | 97.3 | 97.6 | 103 | 99.7 | 68.1 | 93.2 | 97.9 | 93.7 | 92.5 | 95.6 | 97 | 97.3 | 95.3 | 95 | 94.7 | 99.2 | 105 | 99.3
